In US20250122190A1, “HALOGEN-SUBSTITUTED PYRIDAZINONE COMPOUND AND APPLICATION THEREOF” (MEDSHINE DISCOVERY INC., priority 2021, published 2025) one finds IC50 data, which are given here for seven molecules.

In general, IC50 refers to the point on the concentration scale where inhibition reaches its midpoint.

For the assay, the target named is T1, hTRPC5-T478C (Homo sapiens, UniProt Q9UL62).
T1 sequence (Q9UL62 1-973): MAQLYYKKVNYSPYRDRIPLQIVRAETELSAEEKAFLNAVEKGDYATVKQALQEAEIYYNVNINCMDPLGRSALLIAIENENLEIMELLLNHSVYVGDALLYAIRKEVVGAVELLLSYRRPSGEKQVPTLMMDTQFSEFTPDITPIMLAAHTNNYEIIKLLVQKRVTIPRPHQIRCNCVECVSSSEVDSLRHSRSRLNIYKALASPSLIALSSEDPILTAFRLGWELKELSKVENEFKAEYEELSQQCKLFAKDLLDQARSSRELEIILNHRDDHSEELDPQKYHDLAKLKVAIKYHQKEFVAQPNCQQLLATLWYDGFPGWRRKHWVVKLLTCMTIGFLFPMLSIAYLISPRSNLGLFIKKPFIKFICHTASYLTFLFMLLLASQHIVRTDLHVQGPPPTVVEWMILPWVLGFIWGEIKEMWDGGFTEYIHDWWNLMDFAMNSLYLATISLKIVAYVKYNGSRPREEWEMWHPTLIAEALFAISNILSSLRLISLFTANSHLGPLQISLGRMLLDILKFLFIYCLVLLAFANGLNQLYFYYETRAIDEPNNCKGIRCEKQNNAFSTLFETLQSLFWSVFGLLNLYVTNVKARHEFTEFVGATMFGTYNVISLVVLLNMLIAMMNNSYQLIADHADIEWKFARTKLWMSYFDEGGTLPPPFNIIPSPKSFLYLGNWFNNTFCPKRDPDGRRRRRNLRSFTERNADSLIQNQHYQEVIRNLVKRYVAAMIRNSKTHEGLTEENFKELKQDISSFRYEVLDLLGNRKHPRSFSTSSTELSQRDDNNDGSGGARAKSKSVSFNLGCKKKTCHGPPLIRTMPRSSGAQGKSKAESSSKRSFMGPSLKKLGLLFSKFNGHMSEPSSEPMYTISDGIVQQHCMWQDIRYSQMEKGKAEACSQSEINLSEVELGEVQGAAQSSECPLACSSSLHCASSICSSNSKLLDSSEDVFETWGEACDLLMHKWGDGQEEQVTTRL
In words: hTRPC5-T478C patch clamp IC50 assay. The format is cell-based. Particulars: hTRPC5-T478C-HEK cells, whole-cell patch clamp, Englerin A agonist. On the procedure:
Cell culture: hTRPC5-T478C-HEK cells were cultured in a humid environment in 5% CO2 at 37° C.
Cell culture medium ingredients: • DMEM, Supplier: Gibco, Catalog No. 11965-092; • FBS, Supplier: Gibco, Catalog No. 10099-141C, Concentration: 10%; • Pen/Strep, Supplier: Invitrogen, Catalog No. 15140-122, Concentration: 1%; • Zeocin, Supplier: Invitrogen, Catalog No. R25005, Concentration: 200 μg/mL; • Blasticidin S, Supplier: Invitrogen, Catalog No. R21001, Concentration: 5 μg/mL.
In general, the TRPC5-T478C cell line was passaged three times weekly. The dilution factor for each passage was 1:3. Once the cells reached about 80% confluence in the T-75 flask, the cell line was digested with trypsin for about 1 minute and the cell suspension was removed from the flask with a pipette. Depending on the dilution ratio, the removed cell suspension would be transferred to another T-75 flask containing cell culture medium. Note that in order to maintain the logarithmic growth of the cells, the confluence of the cells should be maintained at the subconfluent stage and the cells should be passaged once every 2 to 3 days depending on the proliferation rate of the cell line.
(1) Extracellular fluid: sodium chloride (145 mmol/L), potassium chloride (4 mmol/L), magnesium chloride (1.5 mmol/L), glucose (10 mmol/L), hydroxyethyl piperazineethanesulfonic acid (HEPES, 10 mmol/L). The extracellular fluid was adjusted to pH 7.4 with NaOH, and the osmotic pressure was adjusted to about 305 mOsm/L with pure water or sucrose.
(2) Intracellular fluid: cesium chloride (140 mmol/L), ethylene glycol diethyl ether diamine tetraacetic acid (EGTA, 1 mmol/L), magnesium chloride (2 mmol/L), glucose (10 mmol/L), hydroxyethyl piperazineethanesulfonic acid (HEPES, 10 mmol/L). The intracellular fluid was adjusted to pH 7.2 with […], and the osmotic pressure was adjusted to about 295 mOsm/L with pure water or sucrose.
(3) The extracellular fluid was required to be formulated once a week, and the intracellular fluid was required to be subpackaged and stored at −20° C. after formulation.
Positive reference compounds Englerin A and 2-aminoethoxydiphenyl borate (2-APB) were dissolved in 100% DMSO and stored as a 10 mM working solution after formulation. The test compounds were dissolved in 100% DMSO and stored as a 10 mM working solution after formulation. The final concentration of DMSO in the test solution should be less than 0.3%.
Whole-cell patch clamping was performed at room temperature. The electrical signals recorded using an EPC 10 USB amplifier (HEKA Elektronik, Germany) were low-pass filtered at 3 kHz and finally recorded in PatchMaster 2×90.5 software (HEKA Elektronik, Germany). In this step, the quality control standards were that the cell high-resistance seal was formed at a value greater than 500 MOhms and the detection current was greater than 0.3 nA.
The recording electrode was a borosilicate glass capillary (GC150tF-10, Harvard Apparatus Co., UK), which was pulled by a vertical puller (NARISHIGE PC-10, Japan) and polished. In this step, the quality control standard was that the electrode resistance was between 2 to 5 MΩ.
During whole-cell patch clamp recordings, a continuous filling system (BT100-2J, LongerPump, China) was used to continuously perfuse extracellular fluid. The filling system was mounted on the stage of an upright microscope (FN—S2N, Nikon, Japan), and the filling tip was manually positioned under the microscope.
The voltage instructions for hTRPC5-T478C current amplitude detection were as follows: the cells were clamped as follows: the clamping potential changed in a stepped manner from −40 mV to −80 mV (duration: 50 ms); then the clamping voltage ramped up to +80 mV, and the whole process lasted for 200 ms; then clamping was performed at +80 mV for 50 ms, and finally, the voltage returned to the clamping potential of −40 mV. […]
Background: Patch clamp records ionic current or voltage across a cell membrane.
For `O=c1[nH]ncc(N2CCc3c(ncnc3Sc3ccc(F)cc3C(F)(F)F)C2)c1Cl` [Compound WX002], the IC50 turned out to be 115 nM. The same measure for `O=c1[nH]ncc(N2CCc3c(ncnc3Oc3ccc(F)cc3Br)C2)c1Cl` [Compound WX004]: 91.4 nM; for `O=c1[nH]ncc(N2CCc3c(ncnc3Oc3ccc(F)cc3C(F)(F)F)C2)c1Br` [Compound WX009]: 304 nM. `CC(F)(F)c1cc(F)ccc1Oc1ncnc2c1CCN(c1cn[nH]c(=O)c1Cl)C2` [Compound WX010]: the IC50 was found to be 196 nM. Next, `COCc1nc2c(c(Oc3ccc(F)cc3C(F)(F)F)n1)CCN(c1cn[nH]c(=O)c1Cl)C2` [Compound WX011]: 191 nM. `O=c1[nH]ncc(N2CCc3c(nc(CO)nc3Sc3ccc(F)cc3C(F)(F)F)C2)c1Cl` [Compound WX012] registered an IC50 of 16.6 nM. The same measure for `Nc1nc2c(c(Sc3ccc(F)cc3C(F)(F)F)n1)CCN(c1cn[nH]c(=O)c1Cl)C2` [Compound WX013]: 15.3 nM.
